# “Also recorded” adds a separate entry of the source.
# Key:
# [1] = biological target: SCV helicase (nsp13) ATPase activity (Severe acute respiratory syndrome coronavirus, UniProt P0C6X7); assay: biochemical; design: species or system SARS coronavirus
# [2] = biological target: SCV helicase helicase activity (Severe acute respiratory syndrome coronavirus, UniProt P0C6X7); type: biochemical, SARS coronavirus
# E. coli DnaB helicase = E. coli DnaB helicase (Escherichia coli, UniProt P0ACB0); type: biochemical
# [3] = biological target: SCV helicase (nsp13) unstimulated ATPase activity (Severe acute respiratory syndrome coronavirus, UniProt P0C6X7); type: biochemical, SARS coronavirus
# [4] = test system: SCV (strain GZ50) in FRhK-4 cells; assay: microbe, parasite or virus in culture; type: cell-based, SARS coronavirus
# [5] = test system: SCV (strain GZ50) in FRhK-4 cells; type: cell-based, SARS coronavirus; conditions: 50 μM
# SARS coronavirus (SCV) = conditions: cited from earlier work
# Sequence of E. coli DnaB helicase (P0ACB0 whole entry): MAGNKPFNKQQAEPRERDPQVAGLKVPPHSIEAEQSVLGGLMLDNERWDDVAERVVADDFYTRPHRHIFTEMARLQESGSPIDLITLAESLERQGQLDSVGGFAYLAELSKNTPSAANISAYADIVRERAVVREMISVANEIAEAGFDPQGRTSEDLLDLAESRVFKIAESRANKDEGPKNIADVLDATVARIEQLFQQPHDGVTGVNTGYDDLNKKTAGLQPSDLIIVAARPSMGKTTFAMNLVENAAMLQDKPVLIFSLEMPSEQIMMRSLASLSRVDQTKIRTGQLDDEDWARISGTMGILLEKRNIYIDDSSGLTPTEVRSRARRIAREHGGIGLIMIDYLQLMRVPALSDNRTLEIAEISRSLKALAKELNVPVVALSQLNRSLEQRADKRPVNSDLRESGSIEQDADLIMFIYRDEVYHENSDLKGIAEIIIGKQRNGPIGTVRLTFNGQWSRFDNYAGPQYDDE
smiles,measurement,setting,value
"COc1cc(CC(C)c2nc(C)c(O)c(C34OC5(O)CC(O)(CC(O)(C5)O3)O4)c2CO)ccc1O (racemic) [eubananin, 1-[6-[(2RS)-1-(4-hydroxy-3-methoxyphenyl)-2-propyl]-3-hydroxy-5-(hydroxymethyl)-2-methyl-4-pyridinyl]-2,8,9-trioxaadamantane-3,5,7-triol]",IC50,[1],2800 nM
same,Inhibition of helicase activity (in words),[2],effective inhibitors; also recorded: the best inhibitors of DNA-unwinding
"Cc1ncc(CO)c(C23OC4(O)CC(O)(CC(O)(C4)O2)O3)c1O [bananin, 1-[3-hydroxy-5-(hydroxymethyl)-2-methyl-4-pyridinyl]-2,8,9-trioxaadamantane-3,5,7-triol]",Inhibition of DnaB helicase,E. coli DnaB helicase,did not inhibit
same,IC50,[1],2300 nM
same,Mechanism of inhibition of ATPase activity,[1],noncompetitive inhibitor
same,Inhibition of helicase activity (in words),[2],effective inhibitors; also recorded: the best inhibitors of DNA-unwinding
same,Inhibition of unstimulated basal ATPase activity,[3],not an effective inhibitor; also recorded: Far weaker inhibition
same,Inhibition of unstimulated basal ATPase activity at 100 µM,[3]; 100 µM,slight inhibition
same,Reduction of viral titre,[4],~50%
same,Viral titre,[4],almost zero
same,"Viral titre, % of untreated control infection",[4],below 10%
same,EC50,"[4]; Severe acute respiratory syndrome coronavirus, FRhK-4, read-out: EC50 (antiviral, viral titre)",< 10000 nM
same,Specificity index (CC50/EC50),FRhK-4 cells,over 39
same,Cytopathic effects relative to control infection,[5],distinctly reduced
NC(=O)c1ncn([C@@H]2O[C@H](CO)[C@@H](O)[C@H]2O)n1 [ribavirin],Activity in cell culture,SARS coronavirus (SCV),lack of activity
"COc1cc(C23OC4(O)CC(O)(CC(O)(C4)O2)O3)ccc1O [vanillinbananin, 1-(4-hydroxy-3-methoxyphenyl)-2,8,9-trioxaadamantane-3,5,7-triol]",IC50,[1],680 nM
same,Inhibition of helicase activity (in words),[2],effective inhibitors; also recorded: the best inhibitors of DNA-unwinding

# — paper PMC7110988 (Chemistry & Biology, 2005)
